The test system of one experiment is MSSA ATCC 29213. Description: MIC, agar dilution, MSSA ATCC 29213. It is filed as cell-based, S. aureus. The following applies: Staphylococcus aureus; MSSA ATCC 29213; read-out: MIC. For orientation: Agar dilution tests growth on a series of plates holding different concentrations.
A further experiment concerns MSSA 15. In words: MIC, agar dilution, MSSA 15 (clinical isolate). It is filed as cell-based, S. aureus. The following applies: Staphylococcus aureus; MSSA 15, isolated from patients in China; read-out: MIC.
A further experiment relates to MSSA 16-1. In words: MIC, agar dilution, MSSA 16-1 (clinical isolate). Particulars: Staphylococcus aureus; MSSA 16-1, isolated from patients in China; read-out: MIC. The format is cell-based, S. aureus.
The subject of another experiment is MSSE ATCC 12228. In words: MIC, agar dilution, MSSE ATCC 12228. It is filed as cell-based, S. epidermidis. The following applies: Staphylococcus epidermidis, ATCC12228; MSSE ATCC 12228; read-out: MIC.
The next experiment relates to MSSE 16-5. Description: MIC, agar dilution, MSSE 16-5 (clinical isolate). The format is cell-based, S. epidermidis. Particulars: Staphylococcus epidermidis; MSSE 16-5, isolated from patients in China; read-out: MIC.
Another experiment concerns S.s ATCC 15305. In words: MIC, agar dilution, S.s ATCC 15305. The format is cell-based. Particulars: Staphylococcus saprophyticus, ATCC15305; S. saprophyticus ATCC 15305; read-out: MIC.
A further experiment deals with S.h ATCC 35982. In words: MIC, agar dilution, S.h ATCC 35982. It is filed as cell-based. The following applies: Staphylococcus hominis, ATCC35982; S. hominis ATCC 35982; read-out: MIC.
The next experiment relates to MRSA 13-18. In words: MIC, agar dilution, MRSA 13-18. It is filed as cell-based. The following applies: Staphylococcus aureus; MRSA 13-18; read-out: MIC.
The next experiment deals with MRSA 13-23. Description: MIC, agar dilution, MRSA 13-23. The format is cell-based. The following applies: Staphylococcus aureus; MRSA 13-23; read-out: MIC.
The test system of the next experiment is MRSA 16-34. Description: MIC, agar dilution, MRSA 16-34. The format is cell-based. Particulars: Staphylococcus aureus; MRSA 16-34; read-out: MIC.
In another experiment the test system is MRSA ATCC 43300. In words: MIC, agar dilution, MRSA ATCC 43300. The format is cell-based. Particulars: Staphylococcus aureus; MRSA ATCC 43300; read-out: MIC.
The next experiment concerns MRSA ATCC-B AA-1708. Description: MIC, agar dilution, MRSA ATCC-BAA-1708 (mupA positive). The format is cell-based. Particulars: Staphylococcus aureus; MRSA ATCC-BAA-1708, mupA positive (mupirocin resistance); read-out: MIC.
The test system of the next experiment is MRSA ATCC -BAA-976. Description: MIC, agar dilution, MRSA ATCC-BAA-976 (clindamycin-resistant). It is filed as cell-based. Particulars: Staphylococcus aureus; MRSA ATCC-BAA-976, clindamycin-resistant S. aureus; read-out: MIC.
The test system of a further experiment is VISA ATCC 700698. In words: MIC, agar dilution, VISA ATCC 700698. The format is cell-based. Particulars: Staphylococcus aureus; VISA ATCC 700698; read-out: MIC.
The next experiment deals with VISA ATCC 700699. In words: MIC, agar dilution, VISA ATCC 700699. It is filed as cell-based. The following applies: Staphylococcus aureus; VISA ATCC 700699; read-out: MIC.
Another experiment concerns MRSE 13-3. In words: MIC, agar dilution, MRSE 13-3. It is filed as cell-based, S. epidermidis. The following applies: Staphylococcus epidermidis; MRSE 13-3; read-out: MIC.
The test system of the next experiment is MRSE 16-5. In words: MIC, agar dilution, MRSE 16-5. It is filed as cell-based, S. epidermidis. Particulars: Staphylococcus epidermidis; MRSE 16-5; read-out: MIC.
Experiment [1] relates to drug-susceptible strains: MSSA, MSSE, S. saprophyticus, S. hominis. In words: MIC across the panel of drug-susceptible Gram-positive strains. The format is cell-based. The following applies: 18 h; drug-susceptible Gram-positive strains of Table 1; read-out: MICs (range over strains). The text has this: SAR study for antibacterial activity against drug-susceptible Gram-positive bacteria was initially carried out, taking Lev and compound 1 as reference drugs. […] Bacteria strains used in this study were from the ATCC collection and clinical isolates in Chinese hospitals. The influence of the methylenedioxy ring was explored first, and compounds 6 and 10 were created and tested.

Each structure is given as a SMILES string.

As for `COc1ccc2c(c[n+]3ccc4cc5c(c6c(Cc7ccccc7)cc2c3c46)OCO5)c1O` [13a, 1,2-Methylenedioxy-8-hydroxy-9-methoxy-13-benzylcycloberberine chloride], the MIC in the experiment on MSSA ATCC 29213 is 8 mg/L; with MSSA 15 it was 16 mg/L; in the experiment with MSSA 16-1, 8 mg/L; in the experiment on MSSE ATCC 12228, 16 mg/L; in the experiment with MSSE 16-5 it was 8 mg/L; with S.s ATCC 15305, 8 mg/L. For the same compound, the MIC with S.h ATCC 35982 amounted to 8 mg/L; in the experiment with MRSA 13-18 it was 16 mg/L; in the experiment on MRSA 13-23, 16 mg/L; in the experiment on MRSA 16-34 it was 8 mg/L; with MRSA ATCC 43300, 16 mg/L; in the experiment on MRSA ATCC-B AA-1708, 8 mg/L. The MIC is 16 mg/L with MRSA ATCC -BAA-976; 8 mg/L in the experiment with VISA ATCC 700698; 8 mg/L in the experiment with VISA ATCC 700699; 8 mg/L in the experiment on MRSE 13-3; 16 mg/L in the experiment on MRSE 16-5; 8 to 16 mg/L in experiment [1].
In the case of `COc1ccc2c(c[n+]3ccc4cc5c(c6c(Cc7ccc(Cl)cc7)cc2c3c46)OCO5)c1O` [13e, 1,2-Methylenedioxy-8-hydroxy-9-methoxy-13-p-chlorobenzylcycloberberine chloride], the MIC with MSSA ATCC 29213 is 8 mg/L; with MSSA 15 it was 8 mg/L; in the experiment on MSSA 16-1 it was 4 mg/L; with MSSE ATCC 12228, 8 mg/L; with MSSE 16-5, 4 mg/L; in the experiment on S.s ATCC 15305 it was 16 mg/L. Further, the MIC was 8 mg/L in the experiment with S.h ATCC 35982; 8 mg/L in the experiment with MRSA 13-18; 8 mg/L with MRSA 13-23; 4 mg/L with MRSA 16-34; 8 mg/L with MRSA ATCC 43300; 8 mg/L in the experiment on MRSA ATCC-B AA-1708. Also, the MIC in the experiment on MRSA ATCC -BAA-976 was 4 mg/L; with VISA ATCC 700698, 4 mg/L; in the experiment on VISA ATCC 700699, 8 mg/L; with MRSE 13-3 it was 64 mg/L; in the experiment with MRSE 16-5, 4 mg/L; in [1] it was 2 to 8 mg/L.
Turning to `COc1ccc2c(c[n+]3ccc4cc5c(c6c(Cc7ccc([N+](=O)[O-])cc7)cc2c3c46)OCO5)c1O` [13r, 1,2-Methylenedioxy-8-hydroxy-9-methoxy-13-p-nitrobenzylcycloberberine chloride], the MIC in the experiment with MSSA ATCC 29213 was determined as 16 mg/L; in the experiment with MSSA 15, 8 mg/L; with MSSA 16-1 it was 16 mg/L; in the experiment on MSSE ATCC 12228, 4 mg/L; in the experiment with MSSE 16-5 it was 4 mg/L; with S.s ATCC 15305, 32 mg/L. Also, the MIC turned out to be 8 mg/L with S.h ATCC 35982; 32 mg/L with MRSA 13-18; 8 mg/L with MRSA 13-23; 8 mg/L in the experiment with MRSA 16-34; 64 mg/L in the experiment on MRSA ATCC 43300; 4 mg/L with MRSA ATCC-B AA-1708. The MIC in the experiment with MRSA ATCC -BAA-976 is 32 mg/L; in the experiment with VISA ATCC 700698, 4 mg/L; with VISA ATCC 700699, 4 mg/L; in the experiment with MRSE 13-3, over 64 mg/L; in the experiment on MRSE 16-5, 16 mg/L.
For `CCCc1cc2c3ccc(OC)c(O)c3c[n+]3ccc4cc5c(c1c4c23)OCO5` [15b, 1,2-Methylenedioxy-8-hydroxy-9-methoxy-13-propylcycloberberine chloride], the MIC worked out at 2 mg/L in the experiment on MSSA ATCC 29213; 2 mg/L with MSSA 15; 2 mg/L with MSSA 16-1; 2 mg/L in the experiment with MSSE ATCC 12228; 1 mg/L in the experiment with MSSE 16-5; 8 mg/L with S.s ATCC 15305. Also, the MIC in the experiment on S.h ATCC 35982 came out at 2 mg/L; in the experiment with MRSA 13-18, 4 mg/L; in the experiment on MRSA 13-23, 4 mg/L; in the experiment with MRSA 16-34 it was 2 mg/L; in the experiment on MRSA ATCC 43300, 4 mg/L; with MRSA ATCC-B AA-1708 it was 2 mg/L. For the same compound, the MIC in the experiment with MRSA ATCC -BAA-976 was found to be 2 mg/L; in the experiment with VISA ATCC 700698, 4 mg/L; in the experiment on VISA ATCC 700699 it was 2 mg/L; with MRSE 13-3 it was 4 mg/L; in the experiment on MRSE 16-5 it was 2 mg/L.
